From ChEMBL document CHEMBL3525920, “CYP4F enzymes are responsible for the elimination of fingolimod (FTY720), a novel treatment of relapsing multiple sclerosis” (Drug Metab Dispos, 2011)

Experiments:
[1] = biological target: Cytochrome P450 2E1 (Homo sapiens, UniProt P05181); assay: Activity at human recombinant CYP2E1 expressed in baculovirus-infected BTI-TN-5B1-4 insect cell microsomes assessed as metabolite formation at 5 to 100 uM after 30 mins by HPLC-RA analysis; format: ADME; conditions: bti-tn-5b1-4, 0.5 h
Cytochrome P450 2E1, sequence (P05181 whole entry): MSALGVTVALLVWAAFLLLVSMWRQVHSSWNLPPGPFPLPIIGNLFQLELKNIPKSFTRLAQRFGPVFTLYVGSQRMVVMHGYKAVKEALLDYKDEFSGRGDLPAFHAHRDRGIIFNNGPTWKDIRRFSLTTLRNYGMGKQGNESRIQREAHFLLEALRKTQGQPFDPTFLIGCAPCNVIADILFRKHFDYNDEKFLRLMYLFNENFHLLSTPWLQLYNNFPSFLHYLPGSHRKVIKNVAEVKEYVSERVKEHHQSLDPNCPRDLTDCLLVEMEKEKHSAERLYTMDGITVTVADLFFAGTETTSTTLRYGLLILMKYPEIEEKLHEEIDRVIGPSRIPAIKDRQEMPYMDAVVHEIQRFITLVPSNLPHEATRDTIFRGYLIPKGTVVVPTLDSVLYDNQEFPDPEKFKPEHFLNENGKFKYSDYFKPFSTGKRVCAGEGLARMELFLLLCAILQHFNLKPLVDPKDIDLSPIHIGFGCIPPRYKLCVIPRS

[2] = biological target: Cytochrome P450 2C8 (Homo sapiens, UniProt P10632); assay: Activity at human recombinant CYP2C8 expressed in baculovirus-infected BTI-TN-5B1-4 insect cell microsomes assessed as metabolite formation at 5 to 100 uM after 30 mins by HPLC-RA analysis; format: ADME; conditions: bti-tn-5b1-4, 0.5 h
[3] = system: Liver microsome; assay: Drug metabolism in human liver microsomes assessed as total metabolite formation at 1 to 50 uM after 20 mins by HPLC-RA analysis in presence of CYP2D6 inhibitor quinidine; format: ADME
[4] = biological target: Cytochrome P450 1B1 (Homo sapiens, UniProt Q16678); assay: Activity at human recombinant CYP1B1 expressed in baculovirus-infected BTI-TN-5B1-4 insect cell microsomes assessed as metabolite formation at 5 to 100 uM after 30 mins by HPLC-RA analysis; format: ADME; conditions: bti-tn-5b1-4, 0.5 h
Cytochrome P450 1B1, sequence (Q16678 whole entry): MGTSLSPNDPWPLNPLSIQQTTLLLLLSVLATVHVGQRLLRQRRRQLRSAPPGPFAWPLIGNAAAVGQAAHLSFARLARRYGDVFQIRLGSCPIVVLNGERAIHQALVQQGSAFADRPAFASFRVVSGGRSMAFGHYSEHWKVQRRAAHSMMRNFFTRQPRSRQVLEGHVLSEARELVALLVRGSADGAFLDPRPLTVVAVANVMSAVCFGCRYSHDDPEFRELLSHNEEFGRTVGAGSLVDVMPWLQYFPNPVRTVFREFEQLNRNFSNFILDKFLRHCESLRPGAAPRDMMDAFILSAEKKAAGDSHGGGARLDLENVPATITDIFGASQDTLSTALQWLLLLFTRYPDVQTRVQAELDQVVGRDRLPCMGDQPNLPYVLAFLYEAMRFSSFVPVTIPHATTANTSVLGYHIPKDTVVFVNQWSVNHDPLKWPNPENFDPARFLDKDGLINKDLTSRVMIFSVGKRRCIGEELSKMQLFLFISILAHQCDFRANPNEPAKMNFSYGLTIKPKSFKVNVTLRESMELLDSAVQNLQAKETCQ

[5] = Activity at CYP4A in human liver microsomes assessed as metabolite formation after 24 hrs by HPLC-RA analysis; format: ADME
[6] = biological target: Cytochrome P450 2C19 (Homo sapiens, UniProt P33261); assay: Activity at human recombinant CYP2C19 expressed in baculovirus-infected BTI-TN-5B1-4 insect cell microsomes assessed as metabolite formation at 5 to 100 uM after 30 mins by HPLC-RA analysis; format: ADME; conditions: bti-tn-5b1-4, 0.5 h
[7] = biological target: T1, Cytochrome P450 2B6 (Homo sapiens, UniProt P20813); assay: Activity at human recombinant CYP2B6 expressed in baculovirus-infected BTI-TN-5B1-4 insect cell microsomes assessed as metabolite formation at 5 to 100 uM after 30 mins by HPLC-RA analysis; format: ADME; conditions: bti-tn-5b1-4, 0.5 h
T1 sequence (P20813 whole entry): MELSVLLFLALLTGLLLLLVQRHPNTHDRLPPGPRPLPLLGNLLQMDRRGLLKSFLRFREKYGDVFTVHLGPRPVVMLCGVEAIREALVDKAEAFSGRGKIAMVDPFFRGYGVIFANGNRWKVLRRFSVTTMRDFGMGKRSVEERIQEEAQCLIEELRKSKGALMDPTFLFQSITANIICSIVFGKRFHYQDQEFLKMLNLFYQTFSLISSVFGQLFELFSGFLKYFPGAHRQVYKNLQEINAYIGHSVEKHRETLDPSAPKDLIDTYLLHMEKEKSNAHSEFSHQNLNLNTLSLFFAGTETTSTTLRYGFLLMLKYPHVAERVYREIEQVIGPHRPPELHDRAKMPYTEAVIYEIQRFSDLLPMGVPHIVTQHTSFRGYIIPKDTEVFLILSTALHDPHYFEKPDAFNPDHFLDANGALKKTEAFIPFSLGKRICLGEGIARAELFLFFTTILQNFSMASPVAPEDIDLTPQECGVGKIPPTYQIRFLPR

[8] = Retention time of the compound by symmetry C18 column based LC-MS analysis; format: physicochemical
[9] = biological target: T2, Cytochrome P450 2C9 (Homo sapiens, UniProt P11712); assay: Activity at CYP2C9 in human liver microsomes isolated from donors assessed as metabolite formation after 24 mins by HPLC-RA analysis; format: ADME; conditions: 0.4 h
T2 sequence (P11712 whole entry): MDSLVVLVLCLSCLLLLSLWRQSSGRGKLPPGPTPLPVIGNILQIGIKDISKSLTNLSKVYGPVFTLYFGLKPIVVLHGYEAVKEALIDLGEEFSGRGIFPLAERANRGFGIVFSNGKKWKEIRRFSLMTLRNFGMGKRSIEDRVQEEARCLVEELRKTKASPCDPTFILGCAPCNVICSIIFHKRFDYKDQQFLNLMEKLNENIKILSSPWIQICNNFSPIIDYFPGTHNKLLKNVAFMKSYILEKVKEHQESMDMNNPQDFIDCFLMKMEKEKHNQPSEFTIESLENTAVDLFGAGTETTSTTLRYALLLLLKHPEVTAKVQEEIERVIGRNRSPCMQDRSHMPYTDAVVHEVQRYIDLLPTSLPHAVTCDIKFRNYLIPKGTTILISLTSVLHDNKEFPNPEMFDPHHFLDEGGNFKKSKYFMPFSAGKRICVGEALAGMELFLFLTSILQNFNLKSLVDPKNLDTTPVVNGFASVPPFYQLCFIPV

[10] = biological target: Aromatase (Homo sapiens, UniProt P11511); assay: Activity at human recombinant CYP19 expressed in baculovirus-infected BTI-TN-5B1-4 insect cell microsomes assessed as metabolite formation at 5 to 100 uM after 30 mins by HPLC-RA analysis; format: ADME; conditions: bti-tn-5b1-4, 0.5 h
Aromatase, sequence (P11511 whole entry): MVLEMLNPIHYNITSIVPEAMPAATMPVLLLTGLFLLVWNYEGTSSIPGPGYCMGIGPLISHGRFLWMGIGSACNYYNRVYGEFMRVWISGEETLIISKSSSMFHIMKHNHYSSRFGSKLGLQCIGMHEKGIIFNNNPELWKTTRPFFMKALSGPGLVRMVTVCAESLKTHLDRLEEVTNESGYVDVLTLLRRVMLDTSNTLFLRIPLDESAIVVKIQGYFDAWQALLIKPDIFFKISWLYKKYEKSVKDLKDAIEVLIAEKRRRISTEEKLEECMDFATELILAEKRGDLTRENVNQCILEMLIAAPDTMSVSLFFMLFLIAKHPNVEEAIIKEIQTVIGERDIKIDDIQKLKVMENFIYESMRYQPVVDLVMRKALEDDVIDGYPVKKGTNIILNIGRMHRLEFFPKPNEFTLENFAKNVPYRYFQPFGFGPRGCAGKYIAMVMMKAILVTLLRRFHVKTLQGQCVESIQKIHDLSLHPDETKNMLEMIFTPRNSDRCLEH

[11] = Activity at CYP4F in human liver microsomes assessed as metabolite formation after 15 mins measured per mg protein by Eadie-Hofstee plot analysis; format: ADME; conditions: 0.25 h
[12] = biological target: Cytochrome P450 3A7 (Homo sapiens, UniProt P24462); assay: Activity at human recombinant CYP3A7 expressed in baculovirus-infected BTI-TN-5B1-4 insect cell microsomes assessed as metabolite formation at 5 to 100 uM after 30 mins by HPLC-RA analysis; format: ADME; conditions: bti-tn-5b1-4, 0.5 h
Cytochrome P450 3A7, sequence (P24462 whole entry): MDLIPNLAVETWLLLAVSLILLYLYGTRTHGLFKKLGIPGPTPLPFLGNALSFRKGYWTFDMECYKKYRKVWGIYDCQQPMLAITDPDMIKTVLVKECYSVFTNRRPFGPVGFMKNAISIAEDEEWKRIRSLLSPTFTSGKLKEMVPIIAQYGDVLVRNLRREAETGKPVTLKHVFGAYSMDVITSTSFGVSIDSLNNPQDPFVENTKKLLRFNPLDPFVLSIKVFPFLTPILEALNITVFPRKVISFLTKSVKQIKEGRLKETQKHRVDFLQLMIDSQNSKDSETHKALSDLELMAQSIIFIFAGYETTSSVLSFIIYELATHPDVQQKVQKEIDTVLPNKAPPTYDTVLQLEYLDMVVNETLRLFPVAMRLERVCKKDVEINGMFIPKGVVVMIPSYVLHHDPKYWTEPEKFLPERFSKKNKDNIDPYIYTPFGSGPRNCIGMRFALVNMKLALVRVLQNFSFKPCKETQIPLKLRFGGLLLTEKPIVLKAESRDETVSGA

[13] = system: Liver microsome; assay: Drug metabolism in human liver microsomes assessed as total metabolite formation at 1 to 50 uM after 20 mins by HPLC-RA analysis in presence of CYP2C9 inhibitor sulfaphenazole; format: ADME
[14] = Drug metabolism in human liver cytosol assessed as metabolite formation by HPLC-RA analysis; format: ADME, tissue-based
[15] = biological target: T2, Cytochrome P450 2C9; assay: Activity at human recombinant CYP2C9 expressed in baculovirus-infected BTI-TN-5B1-4 insect cell microsomes assessed as metabolite formation at 5 to 100 uM after 30 mins by HPLC-RA analysis; format: ADME; conditions: bti-tn-5b1-4, 0.5 h
[16] = biological target: T3, Cytochrome P450 3A5 (Homo sapiens, UniProt P20815); assay: Activity at human recombinant CYP3A5 expressed in baculovirus-infected BTI-TN-5B1-4 insect cell microsomes assessed as metabolite formation at 5 to 100 uM after 30 mins by HPLC-RA analysis; format: ADME; conditions: bti-tn-5b1-4, 0.5 h
T3 sequence (P20815 whole entry): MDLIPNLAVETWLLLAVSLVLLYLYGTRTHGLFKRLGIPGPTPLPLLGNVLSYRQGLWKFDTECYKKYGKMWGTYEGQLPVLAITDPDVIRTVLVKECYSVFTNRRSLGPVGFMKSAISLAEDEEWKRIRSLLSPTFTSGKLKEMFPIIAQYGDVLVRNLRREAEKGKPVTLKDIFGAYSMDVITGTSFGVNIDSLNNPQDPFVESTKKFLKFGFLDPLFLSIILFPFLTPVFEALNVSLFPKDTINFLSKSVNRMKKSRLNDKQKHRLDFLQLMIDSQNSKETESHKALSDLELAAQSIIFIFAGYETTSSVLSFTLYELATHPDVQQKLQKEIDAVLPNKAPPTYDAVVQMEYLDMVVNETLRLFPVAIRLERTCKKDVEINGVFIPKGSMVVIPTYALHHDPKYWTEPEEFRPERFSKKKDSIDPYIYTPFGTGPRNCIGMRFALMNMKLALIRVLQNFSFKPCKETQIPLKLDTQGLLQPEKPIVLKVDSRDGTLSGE

[17] = biological target: Cytochrome P450 2A6 (Homo sapiens, UniProt P11509); assay: Activity at human recombinant CYP2A6 expressed in baculovirus-infected BTI-TN-5B1-4 insect cell microsomes assessed as metabolite formation at 5 to 100 uM after 30 mins by HPLC-RA analysis; format: ADME; conditions: bti-tn-5b1-4, 0.5 h
[18] = biological target: Cytochrome P450 4A11 (Homo sapiens, UniProt Q02928); assay: Activity at human recombinant CYP4A11 expressed in baculovirus-infected BTI-TN-5B1-4 insect cell microsomes assessed as metabolite formation at 5 to 100 uM after 30 mins by HPLC-RA analysis; format: ADME; conditions: bti-tn-5b1-4, 0.5 h
Cytochrome P450 4A11, sequence (Q02928 whole entry): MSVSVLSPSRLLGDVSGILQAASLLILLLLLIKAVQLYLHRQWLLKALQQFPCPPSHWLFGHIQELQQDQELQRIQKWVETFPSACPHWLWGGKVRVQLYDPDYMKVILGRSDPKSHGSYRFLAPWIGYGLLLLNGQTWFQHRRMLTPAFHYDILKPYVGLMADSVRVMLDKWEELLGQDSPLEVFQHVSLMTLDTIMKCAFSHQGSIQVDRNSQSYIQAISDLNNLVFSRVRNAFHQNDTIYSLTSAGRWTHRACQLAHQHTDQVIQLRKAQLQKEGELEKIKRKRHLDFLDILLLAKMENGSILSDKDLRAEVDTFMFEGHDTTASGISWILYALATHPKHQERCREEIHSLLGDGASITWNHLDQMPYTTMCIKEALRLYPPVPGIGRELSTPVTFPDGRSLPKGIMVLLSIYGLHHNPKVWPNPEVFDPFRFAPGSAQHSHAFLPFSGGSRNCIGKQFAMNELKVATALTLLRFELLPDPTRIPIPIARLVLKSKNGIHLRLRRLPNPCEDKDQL

[19] = biological target: Cytochrome P450 1A2 (Homo sapiens, UniProt P05177); assay: Activity at human recombinant CYP1A2 expressed in baculovirus-infected BTI-TN-5B1-4 insect cell microsomes assessed as metabolite formation at 5 to 100 uM after 30 mins by HPLC-RA analysis; format: ADME; conditions: bti-tn-5b1-4, 0.5 h
Cytochrome P450 1A2, sequence (P05177 whole entry): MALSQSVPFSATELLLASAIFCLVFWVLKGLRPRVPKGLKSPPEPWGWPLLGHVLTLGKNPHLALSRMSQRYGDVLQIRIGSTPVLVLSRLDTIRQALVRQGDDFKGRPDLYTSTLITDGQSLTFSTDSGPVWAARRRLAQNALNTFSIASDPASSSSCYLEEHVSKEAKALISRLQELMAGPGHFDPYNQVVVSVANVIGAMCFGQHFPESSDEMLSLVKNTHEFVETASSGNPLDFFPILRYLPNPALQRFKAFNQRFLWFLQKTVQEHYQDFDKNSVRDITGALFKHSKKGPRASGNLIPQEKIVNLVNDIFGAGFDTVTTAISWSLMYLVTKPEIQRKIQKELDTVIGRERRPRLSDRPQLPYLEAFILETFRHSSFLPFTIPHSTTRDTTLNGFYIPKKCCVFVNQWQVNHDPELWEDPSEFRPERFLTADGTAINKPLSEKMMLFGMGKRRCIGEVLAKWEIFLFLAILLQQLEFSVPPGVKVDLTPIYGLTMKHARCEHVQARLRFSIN

[20] = biological target: Cytochrome P450 1A1 (Homo sapiens, UniProt P04798); assay: Activity at human recombinant CYP1A1 expressed in baculovirus-infected BTI-TN-5B1-4 insect cell microsomes assessed as metabolite formation at 5 to 100 uM after 30 mins by HPLC-RA analysis; format: ADME; conditions: bti-tn-5b1-4, 0.5 h
[21] = system: Liver microsome; assay: Drug metabolism in human liver microsomes assessed as total metabolite formation at 1 to 50 uM after 20 mins by HPLC-RA analysis in presence of CYP3A4 inhibitor ketoconazole; format: ADME
[22] = biological target: T4, Cytochrome P450 4F2 (Homo sapiens, UniProt P78329); assay: Activity at human recombinant CYP4F2 expressed in baculovirus-infected BTI-TN-5B1-4 insect cell microsomes assessed as metabolite formation at 50 uM by HPLC-RA analysis in presence of anti-CYP4F2; format: ADME; conditions: bti-tn-5b1-4, 50 µM
T4 sequence (P78329 whole entry): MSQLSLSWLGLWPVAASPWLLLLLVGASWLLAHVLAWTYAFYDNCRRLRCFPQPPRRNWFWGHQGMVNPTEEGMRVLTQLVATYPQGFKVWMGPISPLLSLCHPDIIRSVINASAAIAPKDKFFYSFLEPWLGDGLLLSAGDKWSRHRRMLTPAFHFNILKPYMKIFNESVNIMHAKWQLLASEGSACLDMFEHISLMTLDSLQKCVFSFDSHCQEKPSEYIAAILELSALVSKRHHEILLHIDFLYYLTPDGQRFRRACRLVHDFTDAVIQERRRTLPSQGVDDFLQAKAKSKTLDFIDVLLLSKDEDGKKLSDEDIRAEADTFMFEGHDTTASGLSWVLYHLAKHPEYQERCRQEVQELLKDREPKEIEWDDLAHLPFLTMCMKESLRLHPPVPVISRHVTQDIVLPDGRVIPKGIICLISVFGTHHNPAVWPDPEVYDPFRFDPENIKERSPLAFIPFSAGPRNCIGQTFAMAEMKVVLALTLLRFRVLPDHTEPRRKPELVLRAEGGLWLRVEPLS

[23] = biological target: T1, Cytochrome P450 2B6; assay: Activity at CYP2B6 in human liver microsomes isolated from donors assessed as metabolite formation after 24 mins by HPLC-RA analysis; format: ADME; conditions: 0.4 h
[24] = Activity at CYP4F in human liver microsomes assessed as intrinsic clearance for metabolite formation after 15 mins measured per mg protein by Eadie-Hofstee plot analysis; format: ADME; conditions: 0.25 h
[25] = biological target: T3, Cytochrome P450 3A5; assay: Activity at CYP3A5 in human liver microsomes isolated from donors assessed as metabolite formation after 24 mins by HPLC-RA analysis; format: ADME; conditions: 0.4 h

With CCCCCCCCc1ccc(CC[14C](N)(CO)CO)cc1.Cl the Drug metabolism [1] was “metabolite_detected”, the Drug metabolism [2] was “metabolite_not_detected” and the Drug metabolism [3] was “metabolite_detected”. The Drug metabolism [4] was “metabolite_not_detected”, the Drug metabolism [5] was “metabolite_not_detected” and the Drug metabolism [6] was “metabolite_not_detected”. For the same compound, the Drug metabolism [7] was “metabolite_not_detected”, the Retention_time [8] was 42.4 min and the Drug metabolism [9] was “metabolite_not_detected”. For the same compound, the Drug metabolism [10] was “metabolite_not_detected”, the Vmax [11] was 847 pmol/min and the Drug metabolism [12] was “metabolite_not_detected”. For the same compound, the Drug metabolism [13] was “metabolite_detected”, the Drug metabolism [14] was “metabolite_not_detected” and the Drug metabolism [15] was “metabolite_not_detected”. The Drug metabolism [16] was “metabolite_not_detected”, the Drug metabolism [17] was “metabolite_not_detected” and the Drug metabolism [18] was “metabolite_not_detected”. The Drug metabolism [19] was “metabolite_not_detected”, the Drug metabolism [20] was “metabolite_not_detected” and the Drug metabolism [21] was “metabolite_not_detected”. For the same compound, the Drug metabolism [22] was “metabolite_not_detected”, the Drug metabolism [23] was “metabolite_not_detected” and the CLint [24] was 10 µL/min/mg. For the same compound, the Drug metabolism [25] was “metabolite_not_detected”.
